For 30 compounds, IC50 results are on record in patent US10246426B2, “Triazole compounds as T-type calcium channel blockers” (IDORSIA PHARMACEUTICALS LTD, priority 2014, dated 2019).

For this test, the target named is Cav3.2 (Homo sapiens, UniProt O95180). As to the kind of experiment: Calcium flux FLIPR assay, HEK293 cells recombinantly expressing Cav3.2. Type of test: cell-based. The following applies: Cav3.2-channel, Ca2+ entry stimulated by 10 mM CaCl2. On the procedure: In Vitro Methods—Measurement of Calcium Channel Flux by Means of FLIPR Assays.
Cav3.2, sequence (O95180 whole entry, looked up): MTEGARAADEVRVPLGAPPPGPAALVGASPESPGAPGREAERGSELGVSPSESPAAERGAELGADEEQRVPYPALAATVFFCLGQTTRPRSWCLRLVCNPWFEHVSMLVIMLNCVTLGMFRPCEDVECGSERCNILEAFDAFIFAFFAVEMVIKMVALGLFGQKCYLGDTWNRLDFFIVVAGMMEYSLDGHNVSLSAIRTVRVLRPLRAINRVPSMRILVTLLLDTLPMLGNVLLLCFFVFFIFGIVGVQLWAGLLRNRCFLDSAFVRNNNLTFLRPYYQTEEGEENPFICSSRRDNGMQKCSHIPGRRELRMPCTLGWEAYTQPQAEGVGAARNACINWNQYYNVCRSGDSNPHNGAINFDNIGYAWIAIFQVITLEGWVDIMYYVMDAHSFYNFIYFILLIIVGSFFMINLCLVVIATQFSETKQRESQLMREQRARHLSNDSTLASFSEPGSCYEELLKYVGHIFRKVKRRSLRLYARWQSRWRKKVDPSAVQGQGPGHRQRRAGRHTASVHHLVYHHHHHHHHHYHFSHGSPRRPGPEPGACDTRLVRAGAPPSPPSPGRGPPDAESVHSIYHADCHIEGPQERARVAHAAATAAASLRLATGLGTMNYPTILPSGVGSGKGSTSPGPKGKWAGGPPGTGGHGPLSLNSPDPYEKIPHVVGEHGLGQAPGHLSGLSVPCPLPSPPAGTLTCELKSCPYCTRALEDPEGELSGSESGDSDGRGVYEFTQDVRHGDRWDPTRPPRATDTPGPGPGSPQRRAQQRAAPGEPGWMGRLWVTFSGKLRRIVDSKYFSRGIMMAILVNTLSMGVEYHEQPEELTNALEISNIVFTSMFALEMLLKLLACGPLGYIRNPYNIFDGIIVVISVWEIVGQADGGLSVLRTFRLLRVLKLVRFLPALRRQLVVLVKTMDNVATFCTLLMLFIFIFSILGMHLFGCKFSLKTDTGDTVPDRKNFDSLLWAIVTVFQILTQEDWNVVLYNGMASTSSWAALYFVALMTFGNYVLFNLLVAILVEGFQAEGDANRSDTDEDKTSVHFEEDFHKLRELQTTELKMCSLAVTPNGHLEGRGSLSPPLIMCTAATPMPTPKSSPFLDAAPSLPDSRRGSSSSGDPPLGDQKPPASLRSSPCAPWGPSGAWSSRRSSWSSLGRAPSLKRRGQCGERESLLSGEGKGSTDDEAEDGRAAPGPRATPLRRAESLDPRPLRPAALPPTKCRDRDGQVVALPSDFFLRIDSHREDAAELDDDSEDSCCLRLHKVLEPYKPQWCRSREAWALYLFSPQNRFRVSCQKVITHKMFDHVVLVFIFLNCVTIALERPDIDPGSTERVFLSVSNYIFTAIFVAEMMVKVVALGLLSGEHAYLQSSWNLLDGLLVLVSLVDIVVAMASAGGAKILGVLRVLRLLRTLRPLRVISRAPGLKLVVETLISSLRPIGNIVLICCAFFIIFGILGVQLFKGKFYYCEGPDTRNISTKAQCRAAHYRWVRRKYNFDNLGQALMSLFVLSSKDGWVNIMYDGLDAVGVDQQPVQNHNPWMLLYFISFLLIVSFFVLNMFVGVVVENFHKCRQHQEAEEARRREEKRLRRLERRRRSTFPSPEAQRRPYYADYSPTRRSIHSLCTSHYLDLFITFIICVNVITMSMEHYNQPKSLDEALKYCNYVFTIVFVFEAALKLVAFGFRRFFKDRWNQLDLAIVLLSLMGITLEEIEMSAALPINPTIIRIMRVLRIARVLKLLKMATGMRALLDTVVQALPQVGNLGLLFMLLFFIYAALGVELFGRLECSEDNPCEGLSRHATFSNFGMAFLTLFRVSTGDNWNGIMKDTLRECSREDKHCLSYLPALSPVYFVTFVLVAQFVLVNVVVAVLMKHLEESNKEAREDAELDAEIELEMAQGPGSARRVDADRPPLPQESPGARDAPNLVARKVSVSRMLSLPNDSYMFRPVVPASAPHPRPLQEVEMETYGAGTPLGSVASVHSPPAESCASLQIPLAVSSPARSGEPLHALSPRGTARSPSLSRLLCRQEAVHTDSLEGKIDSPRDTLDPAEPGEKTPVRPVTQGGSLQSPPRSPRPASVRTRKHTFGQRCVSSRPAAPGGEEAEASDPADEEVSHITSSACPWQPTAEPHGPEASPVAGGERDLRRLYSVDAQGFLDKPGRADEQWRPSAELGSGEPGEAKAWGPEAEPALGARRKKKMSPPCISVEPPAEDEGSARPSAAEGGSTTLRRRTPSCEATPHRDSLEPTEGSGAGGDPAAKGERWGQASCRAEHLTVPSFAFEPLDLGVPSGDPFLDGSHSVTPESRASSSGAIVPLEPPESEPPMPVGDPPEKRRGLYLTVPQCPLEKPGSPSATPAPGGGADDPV
HEK293 cells recombinantly expressing either voltage-dependent T-type calcium channel subunit […] (Cav3.2) or voltage-dependent L-type calcium channel subunit alpha-1C (Cav1.2) are assayed for calcium flux using the calcium indicator dye Fluo-4-AM (Molecular Devices) and FLIPR technology (Fluorometric Imaging Plate Reader, Molecular Devices) (Xie X, Van Deusen A L, Vitko I, Babu D A, Davies L A, Huynh N, Cheng H, Yang N, Barrett P Q, Perez-Reyes E. Validation of high throughput screening assays against three subtypes of Ca(v)3 T-type channels using molecular and pharmacologic approaches. Assay and Drug Development Technologies 2007, 5(2), 191-203). The HEK293 cells recombinantly expressing Cav3.2 are maintained in DMEM growth medium (Life Technologies) supplemented with 10% Fetal Bovine Serum (FBS), 100 U/ml penicilin (Life Technologies), 100 μg/ml streptomycin (Life Technologies) and 1 mg/ml G418 (Life Technologies). HEK293 cells recombinantly expressing Cav1.2 are maintained in DMEM growth medium (Life technologies) supplemented with 10% FBS, 0.1 mg/ml G418 (Life Technologies), 0.1 mg/ml hygromycin (Life Technologies) and 40 ug/ml zeocin (Life Technologies).
Cells are washed once with PBS, then dissociated in 0.25% trypsin/EDTA (Life Technologies) and seeded into poly-D-lysine coated 384-well black, clear bottom plates (BD Biosciences) at a density of 30,000 cells/well. The seeded plates are incubated overnight at 37° C.
Immediately prior to performing the assay, medium is removed and cells are treated for 1 hour at 37° C. with loading buffer containing HBSS 1× (137 mM NaCl; 5.4 mM KCl; 0.25 mM Na2HPO4; 1.3 mM CaCl2; 0.4 mM MgSO04; 0.5 mM MgCl2; 0.4 mM KH2PO4, pH 7.4), 0.375 g/L NaHCO3, 20 mM Hepes, supplemented with 3 μM Fluo-4-AM and 0.15% Pluronic (Life Technologies). The cells are then washed three times with assay buffer (HBSS 1×; 0.375 g/L NaHCO3; 20 mM Hepes; 1% FBS; pH 7.4) and allowed to rest in 50 μl of wash buffer for 30 minutes.
Stock solutions of test compounds are prepared to a concentration of 10 mM in DMSO. For the Cav3.2 assay, serial dilutions of the compounds are prepared in TEAC buffer (100 mM tetraethylammonium chloride; 20 mM Hepes; 2.5 mM CaCl2; 5 mM KCl; 1 mM MgCl2; 1% FBS; pH 7.2), for the Cav1.2 assay serial dilutions are prepared in assay buffer. […] The compounds are incubated with the cells for 3 minutes and Ca2+ entry is stimulated by adding either CaCl2 to a final concentration of 10 mM (Cav3.2 assay) or by adding KCl to a final concentration of 20 mM (Cav1.2 assay). The kinetics of fluorescence increase are recorded for every well and the area under the fluorescence trace for every compound concentration is used to generate inhibition curves using non-linear regression sigmoidal concentration-response curve analysis with in-house software. IC50 values are calculated and represent the compound concentration required to inhibit 50% of the signal that is obtained in the presence of vehicle instead of test compound.
A general note: Calcium flux is commonly read through the fluorescence of an indicator in the cells.

One may read the IC50 as the midpoint of a concentration-inhibition curve.

As for `CC(C)c1ccc(CC(=O)Nc2cnn(Cc3ccc(F)cc3)n2)cc1` [Example 1, N-[2-(4-Fluoro-benzyl)-2H-[1,2,3]triazol4-yl]-2-(4-isopropyl-phenyl)-acetamide], the IC50 came to 21 nM.

On to `CN(C)c1ccc(CC(=O)Nc2cnn(Cc3ccc(F)cc3)n2)cc1` [Example 2, 2-(4-Dimethylamino-phenyl)-N-[2-(4-fluoro-benzyl)-2H-[1,2,3]triazol-4-yl]-acetamide], for which the 50% inhibitory concentration (IC50) turned out to be 17 nM.

On to `CC(C)c1ccc(CC(=O)Nc2cnn(Cc3ccc(F)c(F)c3)n2)cc1` [Example 5, N-[2-(3,4-Difluoro-benzyl)-2H-[1,2,3]triazol-4-yl]-2-(4-isopropyl-phenyl)-acetamide], for which the IC50 is 30 nM.

On to `Cn1ccc2cc(CC(=O)Nc3cnn(Cc4ccc(F)c(F)c4)n3)ccc21` [Example 7, N-[2-(3,4-Difluoro-benzyl)-2H-[1,2,3]triazol-4-yl]-2-(1-methyl-1H-indol-5-yl)-acetamide], for which the half-maximal inhibitory concentration (IC50) was 6.4 nM.

With `O=C(Cc1ccc2cc[nH]c2c1)Nc1cnn(Cc2ccc(F)c(F)c2)n1` [Example 8, N-[2-(3,4-Difluoro-benzyl)-2H-[1,2,3]triazol-4-yl]-2-(1H-indol-6-yl)-acetamide], the half-inhibitory concentration (IC50) turned out to be 37 nM.

In the case of `O=C(Cc1ccc(OC2CCC2)cc1)Nc1cnn(Cc2ccc(F)c(F)c2)n1` [Example 9, 2-(4-Cyclobutoxy-phenyl)-N-[2-(3,4-difluoro-benzyl)-2H-[1,2,3]triazol-4-yl]-acetamide], the IC50 turned out to be 22 nM.

For `O=C(Cc1ccc(OC2CC2)cc1)Nc1cnn(Cc2ccc(F)c(F)c2)n1` [Example 10, 2-(4-Cyclopropoxy-phenyl)-N-[2-(3,4-difluoro-benzyl)-2H-[1,2,3]triazol-4-yl]-acetamide], the IC50 turned out to be 23 nM.

In the case of `CN(c1ccc(CC(=O)Nc2cnn(Cc3ccc(F)c(F)c3)n2)cn1)C1CC1` [Example 11], the IC50 amounted to 32 nM.

`CN(CC1CC1)c1ccc(CC(=O)Nc2cnn(Cc3ccc(F)c(F)c3)n2)cn1` [Example 12, 2-[6-(Cyclopropylmethyl-methyl-amino)-pyridin-3-yl]-N-[2-(3,4-difluoro-benzyl)-2H-[1,2,3]triazol-4-yl]-acetamide]: the IC50 was found to be 31 nM.

On to `O=C(Cc1ccc(C2(F)COC2)cc1)Nc1cnn(Cc2ccc(F)c(F)c2)n1` [Example 14, N-[2-(3,4-Difluoro-benzyl)-2H-[1,2,3]triazol-4-yl]-2-[4-(3-fluoro-oxetan-3-yl)-phenyl]-acetamide], for which the IC50 stood at 17 nM.

As for `O=C(Cc1ccc2[nH]ccc2c1)Nc1cnn(Cc2ccc(F)c(F)c2)n1` [Example 15, N-[2-(3,4-Difluoro-benzyl)-2H-[1,2,3]triazol-4-yl]-2-(1H-indol-5-yl)-acetamide], the 50% inhibitory concentration (IC50) came out at 40 nM.

On to `CCN(CC)c1ccc(CC(=O)Nc2cnn(Cc3ccc(F)c(F)c3)n2)cn1` [Example 16, 2-(6-Diethylamino-pyridin-3-yl)-N-[2-(3,4-difluoro-benzyl)-2H-[1,2,3]triazol-4-yl]-acetamide], for which the IC50 turned out to be 15 nM.

Consider `O=C(Cc1ccc(N2CCC(F)(F)C2)nc1)Nc1cnn(Cc2ccc(F)c(F)c2)n1` [Example 17, N-[2-(3,4-Difluoro-benzyl)-2H-[1,2,3]triazol-4-yl]-2-[6-(3,3-difluoro-pyrrolidin-1-yl)-pyridin-3-yl]-acetamide], for which the IC50 amounted to 7.3 nM.

In the case of `O=C(Cc1ccc(N2CCCC2)nc1)Nc1cnn(Cc2ccc(F)c(F)c2)n1` [Example 18, N-[2-(3,4-Difluoro-benzyl)-2H-[1,2,3]triazol-4-yl]-2-(6-pyrrolidin-1-yl-pyridin-3-yl)-acetamide], the IC50 came out at 15 nM.

As to `CN1C(=O)C(C)(C)c2cc(CC(=O)Nc3cnn(Cc4ccc(F)c(F)c4)n3)ccc21` [Example 19, N-[2-(3,4-Difluoro-benzyl)-2H-[1,2,3]triazol-4-yl]-2-(1,3,3-trimethyl-2-oxo-2,3-dihydro-1H-indol-5-yl)-acetamide], the IC50 is 9.7 nM.

On to `COC1(c2ccc(CC(=O)Nc3cnn(Cc4ccc(F)c(F)c4)n3)cc2)COC1` [Example 20, N-[2-(3,4-Difluoro-benzyl)-2H-[1,2,3]triazol-4-yl]-2-[4-(3-methoxy-oxetan-3-yl)-phenyl]-acetamide], for which the IC50 was determined as 89 nM.

With `CC1(c2ccc(CC(=O)Nc3cnn(Cc4ccc(F)c(F)c4)n3)cc2)COC1` [Example 22, N-[2-(3,4-Difluoro-benzyl)-2H-[1,2,3]triazol-4-yl]-2-[4-(3-methyl-oxetan-3-yl)-phenyl]-acetamide], the half-maximal inhibitory concentration (IC50) is 15 nM.

Regarding `O=C(Cc1ccc(C2COC2)cc1)Nc1cnn(Cc2ccc(F)c(F)c2)n1` [Example 23, N-[2-(3,4-Difluoro-benzyl)-2H-[1,2,3]triazol-4-yl]-2-(4-oxetan-3-yl-phenyl)-acetamide], the IC50 was found to be 46 nM.

As to `Cc1ccc(Cn2ncc(NC(=O)Cc3ccc(C(C)C)cc3)n2)cc1` [Example 24, 2-(4-Isopropyl-phenyl)-N-[2-(4-methyl-benzyl)-2H-[1,2,3]triazol-4-yl]-acetamide], the IC50 is 37 nM.

Turning to `COc1ccc(Cn2ncc(NC(=O)Cc3ccc(C(C)C)cc3)n2)cc1` [Example 25, 2-(4-Isopropyl-phenyl)-N-[2-(4-methoxy-benzyl)-2H-[1,2,3]triazol-4-yl]-acetamide], the IC50 stood at 33 nM.

For the compound `CC(C)c1ccc(CC(=O)Nc2cnn(Cc3ccc(C#N)cc3)n2)cc1` [Example 26, N-[2-(4-Cyano-benzyl)-2H-[1,2,3]triazol-4-yl]-2-(4-isopropyl-phenyl)-acetamide], the IC50 amounted to 19 nM.

With `CCn1ncc2cc(CC(=O)Nc3cnn(Cc4ccc(F)c(F)c4)n3)ccc21` [Example 27, N-[2-(3,4-Difluoro-benzyl)-2H-[1,2,3]triazol-4-yl]-2-(1-ethyl-1H-indazol-5-yl)-acetamide], the IC50 amounted to 9.8 nM.

`Cc1nn(C)c2ccc(CC(=O)Nc3cnn(Cc4ccc(F)c(F)c4)n3)cc12` [Example 28, N-[2-(3,4-Difluoro-benzyl)-2H-[1,2,3]triazol-4-yl]-2-(1,3-dimethyl-1H-indazol-5-yl)-acetamide]: the half-inhibitory concentration (IC50) came out at 22 nM.

`O=C(Cc1ccc2[nH]nc(C3CC3)c2c1)Nc1cnn(Cc2ccc(F)c(F)c2)n1` [Example 29, 2-(3-Cyclopropyl-1H-indazol-5-yl)-N-[2-(3,4-difluoro-benzyl)-2H-[1,2,3]triazol-4-yl]-acetamide]: the IC50 came to 120 nM.

For `CCCCn1ncc2cc(CC(=O)Nc3cnn(Cc4ccc(F)c(F)c4)n3)ccc21` [Example 30, 2-(1-Butyl-1H-indazol-5-yl)-N-[2-(3,4-difluoro-benzyl)-2H-[1,2,3]triazol-4-yl]-acetamide], the IC50 was 17 nM.

With `Cc1cc2cc(CC(=O)Nc3cnn(Cc4ccc(F)c(F)c4)n3)ccc2[nH]1` [Example 31, N-[2-(3,4-Difluoro-benzyl)-2H-[1,2,3]triazol-4-yl]-2-(2-methyl-1H-indol-5-yl)-acetamide], the IC50 is 11 nM.

With `CCCCc1n[nH]c2ccc(CC(=O)Nc3cnn(Cc4ccc(F)c(F)c4)n3)cc12` [Example 32, 2-(3-Butyl-1H-indazol-5-yl)-N-[2-(3,4-difluoro-benzyl)-2H-[1,2,3]triazol-4-yl]-acetamide], the IC50 came to 74 nM.

Turning to `CC(C)n1ncc2cc(CC(=O)Nc3cnn(Cc4ccc(F)c(F)c4)n3)ccc21` [Example 33, N-[2-(3,4-Difluoro-benzyl)-2H-[1,2,3]triazol-4-yl]-2-(1-isopropyl-1H-indazol-5-yl)-acetamide], the IC50 was 24 nM.

`CCCn1ncc2cc(CC(=O)Nc3cnn(Cc4ccc(F)c(F)c4)n3)ccc21` [Example 34, N-[2-(3,4-Difluoro-benzyl)-2H-[1,2,3]triazol-4-yl]-2-(1-propyl-1H-indazol-5-yl)-acetamide]: the IC50 stood at 18 nM.

Turning to `Cn1nc(C2CC2)c2cc(CC(=O)Nc3cnn(Cc4ccc(F)c(F)c4)n3)ccc21` [Example 35, 2-(3-Cyclopropyl-1-methyl-1H-indazol-5-yl)-N-[2-(3,4-difluoro-benzyl)-2H-[1,2,3]triazol-4-yl]-acetamide], the IC50 was 29 nM.
